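1) Cells in 96-well plates. 2) Compound, 48 h, 5 concentrations. 3) Linear interpolation between surrounding doses. 4) Unreached endpoint = highest concentration. GI50 = concentration required for 50% inhibition of growth. TGI is the concentration that stops growth completely.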
Experiments:
Assay in all cases: NCI tumour cell line growth inhibition, 48 h
[1] = tested on: 786-0 renal
[2] = tested on: A498 renal
[3] = tested on: A549 NSCLC
[4] = tested on: ACHN renal
[5] = tested on: BT-549 breast
[6] = tested on: CAKI-1 renal
[7] = tested on: CCRF-CEM leukemia
[8] = tested on: COLO 205 colon
[9] = tested on: DU-145 prostate
[10] = tested on: EKVX NSCLC
[11] = tested on: HCT-15 colon
[12] = tested on: HOP-62 NSCLC
[13] = tested on: HOP-92 NSCLC
[14] = tested on: HS 578T breast
[15] = tested on: HT29 colon
[16] = tested on: IGROV1 ovarian
[17] = tested on: K-562 leukemia
[18] = tested on: KM12 colon
[19] = tested on: MALME-3M melanoma
[20] = tested on: MDA-MB-231 breast
[21] = tested on: MDA-MB-435
[22] = tested on: MOLT-4 leukemia
[23] = tested on: NCI-H226 lung
[24] = tested on: NCI-H522 lung
[25] = tested on: OVCAR-3 ovarian
[26] = tested on: OVCAR-4 ovarian
[27] = tested on: OVCAR-5 ovarian
[28] = tested on: PC-3 prostate
[29] = tested on: RPMI-8226 leukemia
[30] = tested on: RXF 393 renal
[31] = tested on: SF-268 CNS
[32] = tested on: SF-295 CNS
[33] = tested on: SF-539 CNS
[34] = tested on: SK-MEL-2 melanoma
[35] = tested on: SK-MEL-28 melanoma
[36] = tested on: SK-MEL-5 melanoma
[37] = tested on: SK-OV-3 ovarian
[38] = tested on: SN12C renal
[39] = tested on: SNB-19 CNS
[40] = tested on: SNB-75 CNS
[41] = tested on: SR leukemia
[42] = tested on: SW-620 colon
[43] = tested on: T-47D breast
[44] = tested on: TK-10 renal
[45] = tested on: U251 CNS
[46] = tested on: UACC-257 melanoma
[47] = tested on: UACC-62 melanoma
[48] = tested on: UO-31 renal

CNCc1cccc2c1OCCCCCCC(C)(O)CC(C)(C)S(=O)(=O)c1ccc(cc1)-c1cnc(N)c(n1)C(=O)N2 (centres undefined)
GI50 [1]: 27.9 nM | TGI [1]: 2100 nM | GI50 [2]: 3580 nM | TGI [2]: 16000 nM | GI50 [3]: 123 nM | TGI [3]: 2460 nM | GI50 [4]: 30.6 nM | TGI [4]: 2560 nM | GI50 [5]: 762 nM | TGI [5]: 8990 nM | GI50 [6]: 401 nM | TGI [6]: 2270 nM | GI50 [7]: 13.8 nM | TGI [7]: > 20400 nM | GI50 [8]: 66.4 nM | TGI [8]: 1520 nM | GI50 [9]: 603 nM | TGI [9]: 3240 nM | GI50 [10]: 1870 nM | TGI [10]: 6970 nM | GI50 [11]: 92 nM | TGI [11]: 1310 nM | GI50 [12]: 1320 nM | TGI [12]: 3750 nM | GI50 [13]: 10200 nM | TGI [13]: 25900 nM | GI50 [14]: 381 nM | TGI [14]: 2910 nM | GI50 [15]: 51.5 nM | TGI [15]: 1890 nM | GI50 [16]: 433 nM | TGI [16]: 4480 nM | GI50 [17]: 43.6 nM | TGI [17]: > 100000 nM | GI50 [18]: 1320 nM | TGI [18]: 2940 nM | GI50 [19]: 1210 nM | TGI [19]: 2580 nM | GI50 [20]: 953 nM | TGI [20]: 3140 nM | GI50 [21]: 558 nM | TGI [21]: 2050 nM | GI50 [22]: 15.1 nM | TGI [22]: 2570 nM | GI50 [23]: 1130 nM | TGI [23]: 6210 nM | GI50 [24]: 548 nM | TGI [24]: 2070 nM | GI50 [25]: 277 nM | GI50 [26]: 1130 nM | TGI [26]: 2720 nM | GI50 [27]: 2240 nM | TGI [27]: 10300 nM | GI50 [28]: 910 nM | TGI [28]: 9170 nM | GI50 [29]: 637 nM | TGI [29]: 3000 nM | GI50 [30]: 47.7 nM | TGI [30]: 1370 nM | GI50 [31]: 1270 nM | TGI [31]: 3570 nM | GI50 [32]: 1410 nM | TGI [32]: 2840 nM | GI50 [33]: 27.4 nM | TGI [33]: 2010 nM | GI50 [34]: 1850 nM | TGI [34]: 4250 nM | GI50 [35]: 1240 nM | TGI [35]: 2540 nM | GI50 [36]: 1300 nM | TGI [36]: 2570 nM | GI50 [37]: 1850 nM | TGI [37]: 18400 nM | GI50 [38]: 1170 nM | TGI [38]: 12700 nM | GI50 [39]: 1880 nM | TGI [39]: 5460 nM | GI50 [40]: 453 nM | TGI [40]: 6460 nM | TGI [41]: 1190 nM | GI50 [42]: 1360 nM | TGI [42]: 4170 nM | GI50 [43]: 6440 nM | TGI [43]: 32700 nM | GI50 [44]: 3290 nM | TGI [44]: 12200 nM | GI50 [45]: 366 nM | TGI [45]: 1940 nM | GI50 [46]: 1290 nM | TGI [46]: 2720 nM | GI50 [47]: 1690 nM | TGI [47]: 3340 nM | GI50 [48]: 224 nM | TGI [48]: 2210 nM
